Reference: publication PMC5882164, “A novel calcimimetic agent, evocalcet (MT-4580/KHK7580), suppresses the parathyroid cell function with little effect on the gastrointestinal tract or CYP isozymes in vivo and in vitro” (PLoS ONE, 2018)
pEC50: −log10 of the molar value. Where a name gives a salt, the structure may show the parent alone.

Legend:
human CaR = target: T1, human CaR (Homo sapiens, UniProt P41180); experiment: Agonistic activity studies with HEK293 cells stably expressing human CaR (cytoplasmic Ca2+ concentration); type: cell-based; conditions: hCaR-HEK293 cells
T1 construct: expressed in transfected cells
T1 sequence (P41180 20-1078): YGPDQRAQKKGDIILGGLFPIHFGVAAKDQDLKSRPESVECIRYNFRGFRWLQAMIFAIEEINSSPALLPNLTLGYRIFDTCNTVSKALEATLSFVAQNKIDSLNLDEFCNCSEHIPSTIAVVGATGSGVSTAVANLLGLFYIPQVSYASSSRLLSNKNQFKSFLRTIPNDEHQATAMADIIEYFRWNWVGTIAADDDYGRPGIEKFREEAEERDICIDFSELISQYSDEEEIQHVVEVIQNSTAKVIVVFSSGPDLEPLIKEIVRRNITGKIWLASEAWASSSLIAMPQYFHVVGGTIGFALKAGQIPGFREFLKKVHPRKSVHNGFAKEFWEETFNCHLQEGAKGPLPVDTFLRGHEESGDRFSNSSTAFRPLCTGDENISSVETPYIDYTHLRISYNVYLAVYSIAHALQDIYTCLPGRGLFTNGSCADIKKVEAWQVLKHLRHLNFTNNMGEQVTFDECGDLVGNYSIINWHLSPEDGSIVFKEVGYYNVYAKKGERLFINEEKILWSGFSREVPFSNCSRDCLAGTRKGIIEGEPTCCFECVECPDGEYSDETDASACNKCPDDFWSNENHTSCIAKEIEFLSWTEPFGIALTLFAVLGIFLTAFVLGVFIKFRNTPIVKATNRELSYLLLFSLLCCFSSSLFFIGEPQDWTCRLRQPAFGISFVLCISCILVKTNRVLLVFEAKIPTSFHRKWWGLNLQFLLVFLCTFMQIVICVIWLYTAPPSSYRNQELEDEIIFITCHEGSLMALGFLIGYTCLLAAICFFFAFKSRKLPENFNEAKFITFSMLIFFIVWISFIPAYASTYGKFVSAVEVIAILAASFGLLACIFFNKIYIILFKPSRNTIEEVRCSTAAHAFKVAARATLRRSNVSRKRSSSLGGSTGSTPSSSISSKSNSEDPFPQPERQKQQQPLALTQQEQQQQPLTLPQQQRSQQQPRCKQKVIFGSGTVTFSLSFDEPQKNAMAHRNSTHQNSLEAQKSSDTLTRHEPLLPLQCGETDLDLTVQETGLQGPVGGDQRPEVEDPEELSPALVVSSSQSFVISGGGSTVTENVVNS
Protocol: HEK 293 cell is obtained from Summit Pharmaceuticals International Corporation (ATCC® Number: CRL-1573^TM). The HindIII-XhoI fragment of the human CaR cDNA was subcloned into the mammalian expression vector pcDNA3.1/Hygro (+) (Invitrogen) containing the hygromycin resistance gene as a selectable marker. This plasmid was transfected into HEK 293 cells by lipofection. The transfected cells were grown in DMEM containing 10% fetal bovine serum and hygromycin B ([…]) in 96 well plate. Hygromycin-resistant colonies were subcloned and assayed for hCaR mRNA by quantitative RT-PCR. The stably transfected cell line was then selected and used for agonistic activity studies.
Evocalcet was dissolved in dimethyl sulfoxide (DMSO) and diluted with HEPES buffer for the preparation of cells. Evocalcet solutions (3~30000 nM, 9-point concentrations) were added to a 96-well plate, and a suspension of HEK293 cells stably transfected with the human CaR was then seeded onto the plate. The ratio with the fluorescence intensity was determined continuously with a multi-label plate reader. To evaluate the agonistic activity pattern of evocalcet, calcium solutions in each concentration were added after the addition of evocalcet solutions to the plate.
The transient changes in the cytoplasmic calcium concentration (Δ[Ca^2+]i) induced by receptor activation were measured. (A) The effect of evocalcet on the Δ[Ca^2+]i value in hCaR-HEK293 cells. (B) The effect of evocalcet on the response rates elicited by increasing the extracellular calcium level in hCaR-HEK293 cells. The response rate was calculated using the following formula: Responserate(%)=Δ[Ca^2+]i/MaxΔ[Ca^2+]i×100 Δ[Ca^2+]i: Subtraction of basal [Ca^2+]i from maximum [Ca^2+]i observed after addition of evocalcet; Max Δ[Ca^2+]i: Δ[Ca^2+]i at the maximum Ca concentration (3 mmol/L).

emesis = conditions: common marmoset, in vivo, 4 h
Protocol: The study of effect of evocalcet on emesis in common marmoset was performed by referencing a previously reported method. The marmosets (n = 24) used for this study were housed in cages (460 × 600 × 655 mm) with environmental enrichments (wooden perches, swing, and balls) and acclimated for at least 4 weeks. The marmosets were fasted from evening on the day before administration. To confirm the reduction in the serum PTH levels, blood samples (about 300~400 μL, 1.2∼1.6% of total blood volume) were collected from the femoral or saphenous vein without an anesthesia before and at 1 and 4 h after the oral administration of evocalcet (1.5 or 5 μg/kg, n = 3 in each dose) or cinacalcet (300 or 500 μg/kg, n = 3 in each dose) suspended in 0.5% methyl cellulose solution using a metallic gastric zonde. The serum PTH level was measured using a Porcine Intact PTH ELISA kit (Immutopics, Inc., San Clemente, CA, USA). To evaluate the emetic effects in marmosets, evocalcet (50 or 150 μg/kg) or cinacalcet (1500 or 5000 μg/kg) was orally administered (n = 6/drug, dose down titration, n = 12 in total). The observation of emesis was conducted until 4 h after the administration.

## C[C@@H](N[C@H]1CCN(c2ccc(CC(=O)O)cc2)C1)c1cccc2ccccc12 [evocalcet]
Human CaR; evocalcet 3 nmol/L
  Δ[Ca^2+]i: 1.94 nmol/L
Human CaR; evocalcet 10 nmol/L
  Δ[Ca^2+]i: 6.18 nmol/L
Human CaR; evocalcet 20 nmol/L, Ca concentration 0.25 mmol/L
  Response rate: 0%
Human CaR; evocalcet 20 nmol/L, Ca concentration 0.3 mmol/L
  Response rate: 0%
Human CaR; evocalcet 20 nmol/L, Ca concentration 0.6 mmol/L
  Response rate: 0.26%
Human CaR; evocalcet 20 nmol/L, Ca concentration 0.9 mmol/L
  Response rate: 4.69%
Human CaR; evocalcet 20 nmol/L, Ca concentration 1.2 mmol/L
  Response rate: 16.07%
Human CaR; evocalcet 20 nmol/L, Ca concentration 1.5 mmol/L
  Response rate: 33.31%
Human CaR; evocalcet 20 nmol/L, Ca concentration 1.8 mmol/L
  Response rate: 52.75%
Human CaR; evocalcet 20 nmol/L, Ca concentration 2.1 mmol/L
  Response rate: 70.47%
Human CaR; evocalcet 20 nmol/L, Ca concentration 2.4 mmol/L
  Response rate: 84.37%
Human CaR; evocalcet 20 nmol/L, Ca concentration 2.7 mmol/L
  Response rate: 94.54%
Human CaR; evocalcet 20 nmol/L, Ca concentration 3.0 mmol/L (maximum, reference)
  Response rate: 100%
Human CaR; evocalcet 30 nmol/L
  Δ[Ca^2+]i: 17.71 nmol/L
Human CaR; evocalcet 60 nmol/L, Ca concentration 0.25 mmol/L
  Response rate: 0%
Human CaR; evocalcet 60 nmol/L, Ca concentration 0.3 mmol/L
  Response rate: 0%
Human CaR; evocalcet 60 nmol/L, Ca concentration 0.6 mmol/L
  Response rate: 3.76%
Human CaR; evocalcet 60 nmol/L, Ca concentration 0.9 mmol/L
  Response rate: 16.86%
Human CaR; evocalcet 60 nmol/L, Ca concentration 1.2 mmol/L
  Response rate: 33.15%
Human CaR; evocalcet 60 nmol/L, Ca concentration 1.5 mmol/L
  Response rate: 53.86%
Human CaR; evocalcet 60 nmol/L, Ca concentration 1.8 mmol/L
  Response rate: 70.14%
Human CaR; evocalcet 60 nmol/L, Ca concentration 2.1 mmol/L
  Response rate: 81.77%
Human CaR; evocalcet 60 nmol/L, Ca concentration 2.4 mmol/L
  Response rate: 88.98%
Human CaR; evocalcet 60 nmol/L, Ca concentration 2.7 mmol/L
  Response rate: 92.99%
Human CaR; evocalcet 60 nmol/L, Ca concentration 3.0 mmol/L (maximum, reference)
  Response rate: 100%
Human CaR; evocalcet 100 nmol/L
  Δ[Ca^2+]i: 50.62 nmol/L
Human CaR; evocalcet 300 nmol/L
  Δ[Ca^2+]i: 71.35 nmol/L
Human CaR; evocalcet 1000 nmol/L
  Δ[Ca^2+]i: 70.70 nmol/L
Human CaR; evocalcet 3000 nmol/L
  Δ[Ca^2+]i: 75.59 nmol/L
Human CaR; evocalcet 10000 nmol/L
  Δ[Ca^2+]i: 78.61 nmol/L
Human CaR; evocalcet 30000 nmol/L
  Δ[Ca^2+]i: 77.66 nmol/L
Human CaR; read-out: EC50 for [Ca^2+]i
  pEC50: 7.03

## C[C@@H](NCCCc1cccc(C(F)(F)F)c1)c1cccc2ccccc12 [cinacalcet, Cinacalcet hydrochloride, reference compound]
emesis
  Safety margin: 3 < X < 10
